Measurements: patent publication US11298431B2, “Method for labeling radioisotope radiolabeling compound and kit comprising the same for labeling radioisotope” (KOREA ATOMIC ENERGY RESEARCH INSTITUTE, priority 2018, dated 2022)

Tests used:
[1] = In vitro stability in various media at 37° C. (radio-HPLC); assay type: in vitro ADME
Text: (§1) For synthesis of ^125I-labeled aldehyde [^125I] 5, specific radioactive analogue 4-iodo-N-(4-oxobutyl) benzamide) 5 was synthesized by coupling of 4-aminobutyraldehyde diethyl acetal with 4-iodobenzoic acid under basic conditions and a subsequent reduction under acidic conditions (Scheme 1). The radioiodination shown in 6 was achieved using [^125I] NaI and chloramines-T as oxidants (Scheme 3). The radioiodination reaction was terminated by adding an aqueous solution of sodium metabisulfite. After HPLC purification of the crude product, [^125I] 5 was obtained with high radiochemical yield (72±6%, n=5). The specific activity was 45 GBq/μmol and the chemical purity was more than 99%. In the HPLC chromatogram of the crude mixture, the main product [^125I] 5 was clearly shown at 22.6 minutes (FIG. 1). Radio-labeling reactions were performed by using various amounts of radioisotopes (100 μCi to 1 mCi), but the radiochemical results were consistent. The radioactive iodine compound [^125I] […] The compound [^125I]

[2] = Storage stability of the radioiodinated aldehyde in the refrigerator; assay type: physicochemical
Text: as §1

With `O=CCCCNC(=O)c1ccc([125I])cc1` [[^125I] 5] the “time shown to be stable in medium” value ([1]; PBS) was no less than 24 h, the “time shown to be stable in medium” value ([1]; mouse serum) was no less than 24 h and the “time shown to be stable in medium” value ([1]; saline) was no less than 24 h. The hydrolysis ([2]; compared with active ester-based prosthetic groups (Bolton-Hunter-reagent)) was “not hydrolyzed” and the “time found to be stable in the refrigerator” value ([2]; refrigerator (4° C.)) was “more than 6 months”.
